Assay results from patent publication US20030181527A1, “Novel formulations of alpha-2,4-disulfophenyl-n-tert-butylnitrone” (priority 2000, published 2003).

Tests used:
[1] = Stability of buffered and unbuffered solutions and concentrates at room temperature; type: physicochemical
Text: In a further study the stability of both buffered (sodium hydrogen carbonate) and unbuffered aqueous solutions and concentrates of α-(2,4-disulfophenyl)-N-tert-butylnitrone disodium salt stored at room temperature were compared. […] The buffered solutions show no apparent concentration dependent decomposition due to the short storage time and moderate storage temperature.

[2] = Effect of concentration on stability, carbonate-buffered solutions, 40 days +40° C.; type: physicochemical; conditions: 50 mM sodium hydrogen carbonate; for Final Amount of Aldehyde (II): 40 days +40° C./75% RH
Procedure: In an experiment, aqueous solutions of three different concentrations of α-(2,4-disulfophenyl)-N-tert-butylnitrone disodium salt buffered with sodium hydrogen carbonate (50 mM) were dispensed into 20 ml glass vials, sealed, and then stored for 40 days at +40° C. and 75% relative humidity.

Ps. aeruginosa = experiment: Antimicrobial efficacy (European Pharmacopoeia 2000, Chapter 5.1.3); type: cell-based
Procedure: (§1) The antimicrobial efficacy was tested for three different solutions:
(§2) i) α-(2,4-disulfophenyl)-N-tert-butylnitrone disodium salt, 10 mg/ml;
(§3) ii) α-(2,4-disulfophenyl)-N-tert-butylnitrone disodium salt, 400 mg/ml; and
(§4) iii) a carbonate buffer control.
(§5) The tests were performed according to European Pharmacopoeia 2000, Chapter 5.1.3, pages 259 to 260. Seven 10 ml vials were inoculated, one per test organism. During the tests, the vials were stored at controlled room temperature and protected from light. At different time intervals, samples were withdrawn and after appropriate dilutions the numbers of viable microorganisms (colony forming units per ml, CFU/ml) were determined using standard plate count procedures.

Bur. cepacia = experiment: as above; type: cell-based
Procedure: as §1, §2, §3, §4, §5

[3] = Effect on pH and stability of dilution of aqueous concentrates in 0.9% sodium chloride; type: physicochemical; conditions: 400 mg/ml concentrate, 7 ml diluted in 500 ml 0.9% NaCl, room temperature
Procedure: Three batches of an aqueous concentrate of α-(2,4-disulfophenyl)-N-tert-butylnitrone disodium salt (400 mg/ml) were prepared and adjusted to pH 8.5. One concentrate was unbuffered and the other two concentrates were buffered with respectively 2.6 or 26 mM disodium hydrogen phosphate. In each case a 7 ml portion of the concentrate was transferred into 0.9% sodium chloride solution (500 ml) contained in a PVC bag. The bags were the stored at room temperature, protected from light, for 48 hours. Samples were taken out at 0, 24 and 48 hours and analysed.

[4] = Stability after purging with different air/nitrogen gas mixtures; type: physicochemical; conditions: 400 mg/ml, pH 8.5; for Final Amount of Aldehyde (II) / Final Amount of Related Substances: 2 months +40° C./75% RH
Procedure: A concentrated aqueous solution of α-(2,4-disulfophenyl)-N-tert-butylnitrone disodium salt (400 mg/ml) and disodium hydrogen phosphate (5.3 mM) at pH 8.5 was purged with different levels of air/nitrogen gas mixtures. The solutions were stored in sealed 10 ml glass vials with a fill volume of 7 ml. The samples were stored for two months at +40° C. and 75% relative humidity.

[5] = 7.5 mg/ml buffered (sodium hydrogen carbonate), 0 hours
[6] = 7.5 mg/ml buffered (sodium hydrogen carbonate), 48 hours
[7] = 75 mg/ml buffered (sodium hydrogen carbonate), 0 hours
[8] = 75 mg/ml buffered (sodium hydrogen carbonate), 48 hours
[9] = 150 mg/ml buffered (sodium hydrogen carbonate), 0 hours
[10] = 150 mg/ml buffered (sodium hydrogen carbonate), 48 hours

Amount of Aldehyde (II) [1, 5]: 0.6 Area % | pH [1, 5]: 8.1 | Amount of Aldehyde (II) [1, 6]: 0.7 Area % | pH [1, 6]: 8.7 | Amount of Aldehyde (II) ([1]; 7.5 mg/ml unbuffered, 0 hours): 1.0 Area % | pH ([1]; 7.5 mg/ml unbuffered, 0 hours): 5.8 | Amount of Aldehyde (II) ([1]; 7.5 mg/ml unbuffered, 48 hours): 2.4 Area % | pH ([1]; 7.5 mg/ml unbuffered, 48 hours): 6.3 | Amount of Aldehyde (II) [1, 7]: 0.6 Area % | pH [1, 7]: 8.0 | Amount of Aldehyde (II) [1, 8]: 0.7 Area % | pH [1, 8]: 8.1 | Amount of Aldehyde (II) ([1]; 75 mg/ml unbuffered, 0 hours): 1.1 Area % | pH ([1]; 75 mg/ml unbuffered, 0 hours): 6.1 | Amount of Aldehyde (II) ([1]; 75 mg/ml unbuffered, 48 hours): 1.9 Area % | pH ([1]; 75 mg/ml unbuffered, 48 hours): 6.7 | Amount of Aldehyde (II) [1, 9]: 0.6 Area % | pH [1, 9]: 7.9 | Amount of Aldehyde (II) [1, 10]: 0.7 Area % | pH [1, 10]: 7.8 | Amount of Aldehyde (II) ([1]; 150 mg/ml unbuffered, 0 hours): 1.0 Area % | pH ([1]; 150 mg/ml unbuffered, 0 hours): 6.1 | Amount of Aldehyde (II) ([1]; 150 mg/ml unbuffered, 48 hours): 1.7 Area % | pH ([1]; 150 mg/ml unbuffered, 48 hours): 6.7 | Final Amount of Aldehyde (II) ([2]; 200 mg/ml): 3.5 Area % | Initial Amount of Aldehyde (II) ([2]; 200 mg/ml): 1.7 Area % | Final Amount of Aldehyde (II) ([2]; 300 mg/ml): 3.2 Area % | Initial Amount of Aldehyde (II) ([2]; 300 mg/ml): 1.7 Area % | Final Amount of Aldehyde (II) ([2]; 400 mg/ml): 2.9 Area % | Initial Amount of Aldehyde (II) ([2]; 400 mg/ml): 1.8 Area % | Amount of Aldehyde (II) ([3]; 2.6 mM phosphate, 0 hours): 0.30 Area % | pH ([3]; 2.6 mM phosphate, 0 hours): 6.50 | Amount of Aldehyde (II) ([3]; 2.6 mM phosphate, 24 hours): 0.44 Area % | pH ([3]; 2.6 mM phosphate, 24 hours): 6.69 | Amount of Aldehyde (II) ([3]; 2.6 mM phosphate, 48 hours): 0.57 Area % | pH ([3]; 2.6 mM phosphate, 48 hours): 6.67 | Amount of Aldehyde (II) ([3]; 26 mM phosphate, 0 hours): 0.17 Area % | pH ([3]; 26 mM phosphate, 0 hours): 7.43 | Amount of Aldehyde (II) ([3]; 26 mM phosphate, 24 hours): 0.20 Area % | pH ([3]; 26 mM phosphate, 24 hours): 7.39 | Amount of Aldehyde (II) ([3]; 26 mM phosphate, 48 hours): 0.25 Area % | pH ([3]; 26 mM phosphate, 48 hours): 7.38 | Amount of Aldehyde (II) ([3]; no buffer, 0 hours): 0.25 Area % | pH ([3]; no buffer, 0 hours): 6.01 | Amount of Aldehyde (II) ([3]; no buffer, 24 hours): 0.68 Area % | pH ([3]; no buffer, 24 hours): 6.32 | Amount of Aldehyde (II) ([3]; no buffer, 48 hours): 0.89 Area % | pH ([3]; no buffer, 48 hours): 6.48 | Initial aldehyde (II) ([4]; 5.3 mM phosphate, initial): 0.25 area % | Initial related substances ([4]; 5.3 mM phosphate, initial): 0.56 area % | Final Amount of Aldehyde (II) ([4]; 0% air in purge gas): 0.57 area % | Final Amount of Related Substances ([4]; 0% air in purge gas): 1.3 area % | Final Amount of Aldehyde (II) ([4]; 6.25% air in purge gas): 0.68 ± 0.08 (n = 2) area % | Final Amount of Related Substances ([4]; 6.25% air in purge gas): 1.5 ± 0.1 (n = 2) area % | Final Amount of Aldehyde (II) ([4]; 12.5% air in purge gas): 0.63 ± 0.01 (n = 2) area % | Final Amount of Related Substances ([4]; 12.5% air in purge gas): 1.4 area % | Final Amount of Aldehyde (II) ([4]; 25% air in purge gas): 0.77 area % | Final Amount of Related Substances ([4]; 25% air in purge gas): 1.6 area % | Final Amount of Aldehyde (II) ([4]; 50% air in purge gas): 0.93 area % | Final Amount of Related Substances ([4]; 50% air in purge gas): 1.9 area % | Final Amount of Aldehyde (II) ([4]; 100% air in purge gas): 1.27 area % | Final Amount of Related Substances ([4]; 100% air in purge gas): 2.4 area %
Structure (SMILES): CC(C)(C)[N+]([O-])=Cc1ccc(S(=O)(=O)[O-])cc1S(=O)(=O)[O-].[Na+].[Na+] [α-(2,4-disulfophenyl)-N-tert-butylnitrone disodium salt]
Number of CFUs per ml - Time after Inoculation (Ps. aeruginosa; 10 mg/ml, 6 h): 4.0 × 10^4 CFUs per ml | Number of CFUs per ml - Time after Inoculation (Ps. aeruginosa; 10 mg/ml, 24 h): 4.0 × 10^2 CFUs per ml | Number of CFUs per ml - Time after Inoculation (Ps. aeruginosa; 10 mg/ml, 48 h): 3.5 × 10^2 CFUs per ml | Number of CFUs per ml - Time after Inoculation (Ps. aeruginosa; 10 mg/ml, 7 days): ≦10 CFUs per ml | Number of CFUs per ml - Time after Inoculation (Ps. aeruginosa; 10 mg/ml, 14 days): <1 CFUs per ml | Number of CFUs per ml - Time after Inoculation (Ps. aeruginosa; 10 mg/ml, 21 days): <1 CFUs per ml | Number of CFUs per ml - Time after Inoculation (Ps. aeruginosa; 10 mg/ml, 28 days): <1 CFUs per ml | Number of CFUs per ml - Time after Inoculation (Ps. aeruginosa; 10 mg/ml, <1 min): 1.5 × 10^6 CFUs per ml | Number of CFUs per ml - Time after Inoculation (Ps. aeruginosa; 400 mg/ml, 6 h): 1.4 × 10^1 CFUs per ml | Number of CFUs per ml - Time after Inoculation (Ps. aeruginosa; 400 mg/ml, 24 h): <1 CFUs per ml | Number of CFUs per ml - Time after Inoculation (Ps. aeruginosa; 400 mg/ml, 48 h): <1 CFUs per ml | Number of CFUs per ml - Time after Inoculation (Ps. aeruginosa; 400 mg/ml, 7 days): <1 CFUs per ml | Number of CFUs per ml - Time after Inoculation (Ps. aeruginosa; 400 mg/ml, 14 days): <1 CFUs per ml | Number of CFUs per ml - Time after Inoculation (Ps. aeruginosa; 400 mg/ml, 21 days): <1 CFUs per ml | Number of CFUs per ml - Time after Inoculation (Ps. aeruginosa; 400 mg/ml, 28 days): <1 CFUs per ml | Number of CFUs per ml - Time after Inoculation (Ps. aeruginosa; 400 mg/ml, <1 min): 1.1 × 10^4 CFUs per ml | Reduction in colony forming units per ml (CFU/ml) (Ps. aeruginosa; 400 mg/ml, within 6 hours): ≥ 10^3 fold | Number of CFUs per ml - Time after Inoculation (Bur. cepacia; 10 mg/ml, 6 h): 1.5 × 10^3 CFUs per ml | Number of CFUs per ml - Time after Inoculation (Bur. cepacia; 10 mg/ml, 24 h): <1 CFUs per ml | Number of CFUs per ml - Time after Inoculation (Bur. cepacia; 10 mg/ml, 48 h): <1 CFUs per ml | Number of CFUs per ml - Time after Inoculation (Bur. cepacia; 10 mg/ml, 7 days): <1 CFUs per ml | Number of CFUs per ml - Time after Inoculation (Bur. cepacia; 10 mg/ml, 14 days): <1 CFUs per ml | Number of CFUs per ml - Time after Inoculation (Bur. cepacia; 10 mg/ml, 21 days): <1 CFUs per ml | Number of CFUs per ml - Time after Inoculation (Bur. cepacia; 10 mg/ml, 28 days): <1 CFUs per ml | Number of CFUs per ml - Time after Inoculation (Bur. cepacia; 10 mg/ml, <1 min): 3.5 × 10^5 CFUs per ml | Number of CFUs per ml - Time after Inoculation (Bur. cepacia; 400 mg/ml, 6 h): 8.7 × 10^1 CFUs per ml | Number of CFUs per ml - Time after Inoculation (Bur. cepacia; 400 mg/ml, 24 h): <1 CFUs per ml | Number of CFUs per ml - Time after Inoculation (Bur. cepacia; 400 mg/ml, 48 h): <1 CFUs per ml | Number of CFUs per ml - Time after Inoculation (Bur. cepacia; 400 mg/ml, 7 days): <1 CFUs per ml | Number of CFUs per ml - Time after Inoculation (Bur. cepacia; 400 mg/ml, 14 days): <1 CFUs per ml | Number of CFUs per ml - Time after Inoculation (Bur. cepacia; 400 mg/ml, 21 days): <1 CFUs per ml | Number of CFUs per ml - Time after Inoculation (Bur. cepacia; 400 mg/ml, 28 days): <1 CFUs per ml | Number of CFUs per ml - Time after Inoculation (Bur. cepacia; 400 mg/ml, <1 min): 1.1 × 10^5 CFUs per ml | Reduction in colony forming units per ml (CFU/ml) (Bur. cepacia; 400 mg/ml, within 6 hours): ≥ 10^3 fold
